We go through ten compounds from US20250171417A1, “HETEROCYCLIC DERIVATIVE, AND COMPOSITION AND PHARMACEUTICAL USE THEREOF” (Xizang Haisco Pharmaceutical Co., Ltd., priority 2021, published 2025).

The subject of data set [1] is Prostate cancer cells 22RV1. The experiment in a line: Experiment on inhibiting 22RV1 cell proliferation (CellTiter-Glo, 7 days). To be noted: Homo sapiens, 168 h, 22RV1 cells, 7 days incubation, read-out: IC50 values for inhibition of 22RVI cells. The format is cell-based. The method in brief:
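22RV1 cells at 2000/well in 1% charcoal-stripped-FBS phenol red-free medium, treated next day with compound for 7 days at 37 °C, 5% CO2. Viability by CellTiter-Glo luminescence; inhibition relative to DMSO vehicle, IC50 from dose-response fit.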

Data set [2] can be described thus: Pharmacokinetic test in rats. Type of data set: in vivo. To be noted: rat, plasma, po, male SD rats; for bioavailability: i.g. 5 mg/kg vs intravenous 2 mg/kg; for AUC(0-t): i.g. 5 mg/kg. On the procedure: Test objective: In this experiment, a single dose of each test compound was administered to SD rats intravenously and intragastrically, and the concentrations of the test compounds in plasma of rats were measured to evaluate the pharmacokinetic characteristics of the test compounds in rats.
Experimental animals: male SD rats, 200-250 g, 6-8 weeks old, 6 rats/compound, purchased from Chengdu Ddossy Experimental Animals Co., Ltd.
Experimental method: on the day of the test, 6 SD rats were randomly grouped according to their body weight; the animals were fasted with water available for 12 to 14 hours one day before the administration of a test compound, and were fed 4 hours after the administration.
Sampling: Before and after the administration, 0.1 mL of blood samples were drawn from the orbits of the animals under isoflurane anesthesia, and placed in an EDTAK2 centrifuge tube. Centrifugation was carried out at 5000 rpm at 4° C. for 10 min, and the plasma was collected.
Time points for plasma collection in IV&PO group: 0, 5 min, 15 min, 30 min, 1 h, 2 h, 4 h, 6 h, 8 h, and 24 h.
Before analysis and detection, all samples were stored at −60° C. The samples were analyzed quantitatively by LC-MS/MS.

The mark [3] stands for this setting: cells with nM printed beside the value.
[4] abbreviates: cells without a unit of their own (μM).

As a reminder, the IC50 is the concentration that inhibits the measured activity by half. Broadly, the AUC(0-t) is the area under the concentration-time curve up to a stated or last time point. Lower therefore signals less exposure.

Structures are written as SMILES. Like-named read-outs stand apart in the source and are kept apart here.

As to `CC(C)(C(=O)Nc1ccc(C#N)c(Cl)c1)n1cc(C#CC2CN(c3ccc4c(c3)C(=O)N(C3CCC(=O)NC3=O)C4=O)C2)cn1` (centres unmarked) [Compound 12, N-(3-chloro-4-cyanophenyl)-2-(4-((1-(2-(2,6-dioxopiperidin-3-yl)-1,3-dioxoisoindolin-5-yl)azetidin-3-yl)ethynyl)-1H-pyrazol-1-yl)-2-methylpropanamide], the IC50 in data set [1] (setting [3]) was under 50 nM. Also, in data set [2], the bioavailability turned out to be 73 ± 7.2% and the AUC(0-t) stood at 70500 ± 6980 ng·h/mL.
Regarding `Cc1cc(NC(=O)C(C)(C)n2cc(C#CC3CN(c4ccc5c(c4)C(=O)N(C4CCC(=O)NC4=O)C5=O)C3)cn2)ccc1C#N` (centres unmarked) [Compound 13, N-(4-cyano-3-methylphenyl)-2-(4-((1-(2-(2,6-dioxopiperidin-3-yl)-1,3-dioxoisoindolin-5-yl)azetidin-3-yl)ethynyl)-1H-pyrazol-1-yl)-2-methylpropanamide], in data set [1] (setting [4]), the IC50 is under 1000 nM. In addition, in data set [2], the bioavailability amounted to 77.8 ± 8.5% and the AUC(0-t) was found to be 57800 ± 6300 ng·h/mL.
As for `CC(C)(C(=O)Nc1ccc(C#N)cc1Cl)n1cc(C#CC2CN(c3ccc4c(c3)C(=O)N(C3CCC(=O)NC3=O)C4=O)C2)cn1` (centres unmarked) [Compound 20, N-(2-chloro-4-cyanophenyl)-2-(4-((1-(2-(2,6-dioxopiperidin-3-yl)-1,3-dioxoisoindolin-5-yl)azetidin-3-yl)ethynyl)-1H-pyrazol-1-yl)-2-methylpropanamide], the IC50 in data set [1] (setting [3]) is under 50 nM. Also, in data set [2], the bioavailability stood at 62 ± 23% and the exposure AUC(0-t) was determined as 16000 ± 5820 ng·h/mL.
As to `CC(C)(C(=O)Nc1ccc(C(F)(F)F)cc1F)n1cc(C#CC2CN(c3ccc4c(c3)C(=O)N(C3CCC(=O)NC3=O)C4=O)C2)cn1` (centres unmarked) [Compound 31, N-(2-fluoro-4-(trifluoromethyl)phenyl)-2-(4-((1-(2-(2,6-dioxopiperidin-3-yl)-1,3-dioxoisoindolin-5-yl)azetidin-3-yl)ethynyl)-1H-pyrazol-1-yl)-2-methylpropanamide], the IC50 in data set [1] (setting [3]) was under 100 nM. This compound registered an AUC(0-t) in data set [2] of 39700 ± 1890 ng·h/mL.
For `O=C1CCC(N2C(=O)c3cc(F)c(N4CC(C#Cc5cnn(C6(C(=O)Nc7ccc(C(F)(F)F)cc7Cl)CCC6)c5)C4)cc3C2=O)C(=O)N1` (centres unmarked) [Compound 33], in data set [1] (setting [4]), the IC50 was under 1000 nM. Further, in data set [2], the bioavailability came to 55.3 ± 5.4% and the AUC(0-t) was found to be 9390 ± 916 ng·h/mL.
Take `CC(C)(C(=O)Nc1ccc(C#N)c(Br)c1)n1cc(C#CC2CN(c3ccc4c(c3)C(=O)N(C3CCC(=O)NC3=O)C4=O)C2)cn1` (centres unmarked) [Compound 37, N-(3-bromo-4-cyanophenyl)-2-(4-((1-(2-(2,6-dioxopiperidin-3-yl)-1,3-dioxoisoindolin-5-yl)azetidin-3-yl)ethynyl)-1H-pyrazol-1-yl)-2-methylpropanamide]: the IC50 in data set [1] (setting [3]) was under 50 nM. Besides, in data set [2], the bioavailability was found to be 69.8 ± 28% and the AUC(0-t) was found to be 55800 ± 22600 ng·h/mL.
Take `CC(C)(C(=O)Nc1ccc(C#N)c(N2CCCC2)c1)n1cc(C#CC2CN(c3ccc4c(c3)C(=O)N(C3CCC(=O)NC3=O)C4=O)C2)cn1` (centres unmarked) [Compound 38, N-(4-cyano-3-(pyrrolidin-1-yl)phenyl)-2-(4-((1-(2-(2,6-dioxopiperidin-3-yl)-1,3-dioxoisoindolin-5-yl)azetidin-3-yl)ethynyl)-1H-pyrazol-1-yl)-2-methylpropanamide]: the IC50 in data set [1] (setting [3]) is under 50 nM. In data set [2], the bioavailability was 43.5 ± 7.3% and the AUC(0-t) stood at 7200 ± 1210 ng·h/mL.
For `N#Cc1ccc(NC(=O)Cn2cc(C#CC3CN(c4ccc5c(c4)C(=O)N(C4CCC(=O)NC4=O)C5=O)C3)cn2)cc1C(F)(F)F` (centres unmarked) [Compound 47, N-(4-cyano-3-(trifluoromethyl)phenyl)-2-(4-((1-(2-(2,6-dioxopiperidin-3-yl)-1,3-dioxoisoindolin-S-yl)azetidin-3-yl)ethynyl)-1H-pyrazol-1-yl) acetamide], the IC50 in data set [1] (setting [3]) is under 50 nM. Besides, in data set [2], the bioavailability was found to be 37.7 ± 13% and the AUC(0-t) came out at 11300 ± 3880 ng·h/mL.
The like results for `CC(C)(C(=O)Nc1ccc(C(F)(F)F)cc1-n1cccc1)n1cc(C#CC2CN(c3ccc4c(c3)C(=O)N(C3CCC(=O)NC3=O)C4=O)C2)cn1` (centres unmarked) [Compound 133, N-(2-(1H-pyrrol-1-yl)-4-(trifluoromethyl)phenyl)-2-(4-((1-(2-(2,6-dioxopiperidin-3-yl)-1,3-dioxoisoindolin-5-yl)azetidin-3-yl)ethynyl)-1H-pyrazol-1-yl)-2-methylpropanamide] were, in that order, under 100 nM, 70.3 ± 7.9% and 8290 ± 935 ng·h/mL.
On to `CC(C)(C(=O)Nc1ccc(C#N)c2c1CCC2)n1cc(C#CC2CN(c3ccc4c(c3)C(=O)N(C3CCC(=O)NC3=O)C4=O)C2)cn1` (centres unmarked) [Compound 141, N-(7-cyano-2,3-dihydro-1H-inden-4-yl)-2-(4-((1-(2-(2,6-dioxopiperidin-3-yl)-1,3-dioxoisoindolin-5-yl)azetidin-3-yl)ethynyl)-1H-pyrazol-1-yl)-2-methylpropanamide], for which, in data set [1] (setting [3]), the IC50 was under 50 nM. Also, in data set [2], the bioavailability turned out to be 76.1 ± 716% and the AUC(0-t) is 15700 ± 3200 ng·h/mL.
